# Target: T1, PmrA (Salmonella enterica, UniProt A0A0F6BAF1)
# T1 construct: gene basR
# Test: isothermal titration calorimetry
# Assay type: binding
# T1 sequence (A0A0F6BAF1 entry or part of it): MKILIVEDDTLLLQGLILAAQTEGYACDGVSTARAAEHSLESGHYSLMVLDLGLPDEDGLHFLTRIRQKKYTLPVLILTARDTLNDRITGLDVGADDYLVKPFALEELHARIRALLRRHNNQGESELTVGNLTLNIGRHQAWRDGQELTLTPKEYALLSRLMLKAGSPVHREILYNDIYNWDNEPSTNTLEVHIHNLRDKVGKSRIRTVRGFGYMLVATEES
structure (smiles),measurement,value
C=CCc1ccc(O)c(-c2cc(CC=C)ccc2O)c1 [magnolol],Kd,2000 nM

# Source: article PMC12774351, “A lignan compound regulates LPS modifications via PmrA/B signaling cascades to potentiate colistin efficacy in vivo” (PLOS Pathogens, 2025)
